Consider one compound from patent US9139638B2, “Mouse model of cholinergic dysfunction to evaluate cognitive enhancers and drugs that improve myasthenia” (priority 2006, dated 2015).

The assay has as its system VAChT KD^HOM mice. In words: Grip force test in VAChT KD^HOM mice. The class given is in vivo. The conditions noted are these: pyridostigmine i.p. 1 mg/kg, 30 min prior to the test, FIG. 4B, p<0.05. The method, then: To evaluate whether the alterations detected in neuromuscular transmission may affect neuromuscular function, we tested the performance of wild-type and mutant mice in motor tasks (FIG. 4). The wire-hang experiments were conducted as described (Sango et al. (1996) Mice lacking both subunits of lysosomal beta-hexosaminidase display gangliosidosis and mucopolysaccharidosis. Nat. Genet. 14:348-352) and time spent hanging upside down was determined with a cut-off time of 60 sec.
To measure grip force, we used a custom built force transducer connected to a small support that could be grasped by the mouse as described (Fowler et al. (2002) Motor and associative deficits in D2 dopamine receptor knockout mice. Int. J. Dev. Neurosci. 20:309-321). Five tests were performed per mouse with a maximum period of 50 sec for each animal over two different days. The force transducer was coupled to a computer and a routine was developed to record the maximal grip-force exerted. By comparison, VAChT KD^HET mice present no deficit in neuromuscular function as assessed in this test. Importantly, reduced grip-strength in VAChT KD^HOM mice was improved by prior injection of one of three cholinesterase inhibitors: pyridostigmine (i.p. 1 mg/kg), galantamine (s.c. 1 mg/kg) or physostigmine (i.p., 0.3 mg/kg), (FIG. 4B, F(3,47)=8.323 p<0.05). […]

In the case of `CN(C)C(=O)Oc1ccc[n+](C)c1` [pyridostigmine], the “grip-strength (maximal grip-force)” value is recorded as “improved”.
